Assay results: US20230086702A1, “SUBSTITUTED 2-AMINO-PYRAZOLYL-[1,2,4]TRIAZOLO[1,5A]PYRIDINE DERIVATIVES AND USE THEREOF” (The Johns Hopkins University, priority 2019, published 2023)

How the values were obtained:
[1] = target: T1, DLK (Homo sapiens, UniProt Q12852); experiment: DLK biochemical assay (TR-FRET, MKK7 phosphorylation)
T1 construct: 10 nM DLK, catalytic domain, Carna Biosiences; purchased Carna Biosciences ('Carna Biosiences' [sic])
T1 sequence (Q12852 125-366 limits assumed): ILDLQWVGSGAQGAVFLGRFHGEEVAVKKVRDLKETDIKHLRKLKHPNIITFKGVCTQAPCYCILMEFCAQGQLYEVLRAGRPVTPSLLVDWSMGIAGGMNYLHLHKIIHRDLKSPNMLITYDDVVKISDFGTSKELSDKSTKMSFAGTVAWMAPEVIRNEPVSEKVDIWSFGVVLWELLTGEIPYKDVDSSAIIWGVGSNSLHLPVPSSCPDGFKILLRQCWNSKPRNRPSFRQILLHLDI
Method in brief: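 TR-FRET read-out (665/Eu ratio) of MKK7 T275/S277 phosphorylation, with inhibition lowering the signal. Final conditions: 10 nM DLK catalytic domain, 15 nM MKK7, 60 μM ATP, 90 min at RT. Detection incubation 16 h at 37° C in 1536-well or 4° C in 384-well format.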

[2] = target: T2, LZK (Homo sapiens, UniProt O43283); experiment: LZK biochemical assay (TR-FRET, MKK7 phosphorylation)
T2 construct: 10 nM LZK, catalytic domain, Carna Biosiences in assay buffer; purchased Carna Biosciences ('Carna Biosiences' [sic])
T2 sequence (O43283 168-409 limits assumed): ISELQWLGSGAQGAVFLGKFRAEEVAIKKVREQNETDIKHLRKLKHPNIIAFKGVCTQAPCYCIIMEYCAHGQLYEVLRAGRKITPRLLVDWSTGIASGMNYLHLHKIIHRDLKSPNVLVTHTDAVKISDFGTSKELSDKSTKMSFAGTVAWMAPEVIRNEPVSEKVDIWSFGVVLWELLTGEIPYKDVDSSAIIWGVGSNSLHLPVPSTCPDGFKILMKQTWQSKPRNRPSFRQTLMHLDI
Method in brief: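 Read-out is HTRF: Eu-labelled anti-phospho-MKK7 (T275/S277) and XL665 anti-His, incubated 16 h at 32 °C, with a drop in signal marking inhibition. Reaction beforehand: 10 nM LZK kinase domain, 15 nM His-MKK7, 15 µM ATP (final) for 90 min at room temperature, pH 7.5.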

Compound	IC50 [1]	IC50 [2]
Nc1nc2c(-c3cccc(S(=O)(=O)C(F)(F)F)c3)cc(-c3cnn(C(c4ccc(C(F)(F)F)nc4)C4CCOCC4)c3)cn2n1 (single isomer, unassigned) [II-20, 6-(1-{Tetrahydro-2H-pyran-4-yl[6-(trifluoromethyl)pyridin-3-yl]methyl}-1H-pyrazol-4-yl)-8-{3-[(trifluoromethyl)sulfonyl]phenyl}[1,2,4]triazolo[1,5-a]pyridin-2-amine]	71 nM	140 nM
CCC(c1ccc(C(F)(F)F)nc1)n1cc(-c2cc(-c3ccnc(OC(F)F)c3)c3nc(N)nn3c2)cn1 (single isomer, unassigned) [II-26, 8-[2-(Difluoromethoxy)pyridin-4-yl]-6-(1-{1-[6-(trifluoromethyl)pyridin-3-yl]propyl}-1H-pyrazol-4-yl)[1,2,4]triazolo[1,5-a]pyridin-2-amine]	210 nM	150 nM
CCC(c1ccc(C(F)(F)F)nc1)n1cc(-c2cc(-c3ccnc(OC(F)F)c3)c3nc(N)nn3c2)cn1 (single isomer, unassigned) [II-27, 8-[2-(Difluoromethoxy)pyridin-4-yl]-6-(1-{1-[6-(trifluoromethyl)pyridin-3-yl]propyl}-1H-pyrazol-4-yl)[1,2,4]triazolo[1,5-a]pyridin-2-amine]	30 nM	55 nM
CC(C)C(c1ccc(C(F)(F)F)nc1)n1cc(-c2cc(-c3ccnc(C(F)(F)F)c3)n3nc(N)nc3c2)cn1 (single isomer, unassigned) [II-29, 7-(1-{2-Methyl-1-[6-(trifluoromethyl)pyridin-3-yl]propyl}-1H-pyrazol-4-yl)-5-[2-(trifluoromethyl)pyridin-4-yl][1,2,4]triazolo[1,5-a]pyridin-2-amine]	120 nM	97 nM
CC(C)C(c1ccc(C(F)(F)F)nc1)n1cc(-c2cc(-c3ccnc(C(F)(F)F)c3)n3nc(N)nc3c2)cn1 (single isomer, unassigned) [II-30, 7-(1-{2-Methyl-1-[6-(trifluoromethyl)pyridin-3-yl]propyl}-1H-pyrazol-4-yl)-5-[2-(trifluoromethyl)pyridin-4-yl][1,2,4]triazolo[1,5-a]pyridin-2-amine]	8.7 nM	6.7 nM
CCC(c1ccc(C(F)(F)F)nc1)n1cc(-c2cc(-c3ccnc(C4(F)CC4)c3)n3nc(N)nc3c2)cn1 (single isomer, unassigned) [II-32, 5-[2-(1-Fluorocyclopropyl)pyridin-4-yl]-7-(1-{1-[6-(trifluoromethyl)pyridin-3-yl]propyl}-1H-pyrazol-4-yl)[1,2,4]triazolo[1,5-a]pyridin-2-amine]	66 nM	16 nM
CCC(c1ccc(C(F)(F)F)nc1)n1cc(-c2cc(-c3ccnc(C4(F)CC4)c3)n3nc(N)nc3c2)cn1 (single isomer, unassigned) [II-33, 5-[2-(1-Fluorocyclopropyl)pyridin-4-yl]-7-(1-{1-[6-(trifluoromethyl)pyridin-3-yl]propyl}-1H-pyrazol-4-yl)[1,2,4]triazolo[1,5-a]pyridin-2-amine]	17 nM	7.6 nM
Nc1nc2cc(-c3cnn(C(c4ccc(C(F)(F)F)nc4)C4CCOCC4)c3)cc(-c3ccnc(C(F)(F)F)c3)n2n1 (single isomer, unassigned) [II-35, 7-(1-{Tetrahydro-2H-pyran-4-yl[6-(trifluoromethyl)pyridin-3-yl]methyl}-1H-pyrazol-4-yl)-5-[2-(trifluoromethyl)pyridin-4-yl][1,2,4]triazolo[1,5-a]pyridin-2-amine]	63 nM	44 nM
CCC(c1ccc(C(F)(F)F)nc1)n1cc(-c2cc(-c3ccc(C(F)(F)F)nc3)c3nc(N)nn3c2)cn1 (single isomer, unassigned) [II-38, 8-[6-(Trifluoromethyl)pyridin-3-yl]-6-(1-{1-[6-(trifluoromethyl)pyridin-3-yl]propyl}-1H-pyrazol-4-yl)[1,2,4]triazolo[1,5-a]pyridin-2-amine]	56 nM	120 nM
CCC(c1ccc(C(F)(F)F)nc1)n1cc(-c2cc(-c3ccc(C(F)(F)F)nc3)c3nc(N)nn3c2)cn1 (single isomer, unassigned) [II-39, 8-[6-(Trifluoromethyl)pyridin-3-yl]-6-(1-{1-[6-(trifluoromethyl)pyridin-3-yl]propyl}-1H-pyrazol-4-yl)[1,2,4]triazolo[1,5-a]pyridin-2-amine]	24 nM	52 nM
CC(C)C(c1ccc(C(F)(F)F)nc1)n1cc(-c2cc(-c3ccc(C(F)(F)F)nc3)c3nc(N)nn3c2)cn1 (single isomer, unassigned) [II-41, 6-(1-{2-Methyl-1-[6-(trifluoromethyl)pyridin-3-yl]propyl}-1H-pyrazol-4-yl)-8-[6-(trifluoromethyl)pyridin-3-yl][1,2,4]triazolo[1,5-a]pyridin-2-amine]	380 nM	770 nM

Now those with a lower IC50 [1], led by results:

IC50 [1]	IC50 [2]	Compound
0.6 nM	1.3 nM	CS(=O)(=O)c1cccc(-c2cc(-c3cnn(C(c4ccc(C(F)(F)F)nc4)C4CCOCC4)c3)cn3nc(N)nc23)c1 (single isomer, unassigned) [II-14, 8-[3-(Methylsulfonyl)phenyl]-6-(1-{tetrahydro-2H-pyran-4-yl[6-(trifluoromethyl)pyridin-3-yl]methyl}-1H-pyrazol-4-yl)[1,2,4]triazolo[1,5-a]pyridin-2-amine]
0.9 nM	2.7 nM	CS(=O)(=O)c1cccc(-c2cc(-c3cnn(C(c4ccc(C(F)(F)F)nc4)C4CCOCC4)c3)cn3nc(N)nc23)c1 (single isomer, unassigned) [II-15, 8-[3-(Methylsulfonyl)phenyl]-6-(1-{tetrahydro-2H-pyran-4-yl[6-(trifluoromethyl)pyridin-3-yl]methyl}-1H-pyrazol-4-yl)[1,2,4]triazolo[1,5-a]pyridin-2-amine]
2.1 nM	11 nM	CCS(=O)(=O)c1cccc(-c2cc(-c3cnn(C(c4ccc(C(F)(F)F)nc4)C4CCOCC4)c3)cn3nc(N)nc23)c1 (single isomer, unassigned) [II-17, 8-[3-(Ethylsulfonyl)phenyl]-6-(1-{tetrahydro-2H-pyran-4-yl[6-(trifluoromethyl)pyridin-3-yl]methyl}-1H-pyrazol-4-yl)[1,2,4]triazolo[1,5-a]pyridin-2-amine]
0.3 nM	1.5 nM	CCS(=O)(=O)c1cccc(-c2cc(-c3cnn(C(c4ccc(C(F)(F)F)nc4)C4CCOCC4)c3)cn3nc(N)nc23)c1 (single isomer, unassigned) [II-18, 8-[3-(Ethylsulfonyl)phenyl]-6-(1-{tetrahydro-2H-pyran-4-yl[6-(trifluoromethyl)pyridin-3-yl]methyl}-1H-pyrazol-4-yl)[1,2,4]triazolo[1,5-a]pyridin-2-amine]
7.6 nM	14 nM	Nc1nc2c(-c3cccc(S(=O)(=O)C(F)(F)F)c3)cc(-c3cnn(C(c4ccc(C(F)(F)F)nc4)C4CCOCC4)c3)cn2n1 (single isomer, unassigned) [II-21, 6-(1-{Tetrahydro-2H-pyran-4-yl[6-(trifluoromethyl)pyridin-3-yl]methyl}-1H-pyrazol-4-yl)-8-{3-[(trifluoromethyl)sulfonyl]phenyl}[1,2,4]triazolo[1,5-a]pyridin-2-amine]
4.5 nM	9.2 nM	CN(C)c1cccc(-c2cc(-c3cnn(C(c4ccc(C(F)(F)F)nc4)C4CCOCC4)c3)cn3nc(N)nc23)c1 (single isomer, unassigned) [II-23, 8-[3-(Dimethylamino)phenyl]-6-(1-{tetrahydro-2H-pyran-4-yl[6-(trifluoromethyl)pyridin-3-yl]methyl}-1H-pyrazol-4-yl)[1,2,4]triazolo[1,5-a]pyridin-2-amine]
0.5 nM	2.3 nM	CN(C)c1cccc(-c2cc(-c3cnn(C(c4ccc(C(F)(F)F)nc4)C4CCOCC4)c3)cn3nc(N)nc23)c1 (single isomer, unassigned) [II-24, 8-[3-(Dimethylamino)phenyl]-6-(1-{tetrahydro-2H-pyran-4-yl[6-(trifluoromethyl)pyridin-3-yl]methyl}-1H-pyrazol-4-yl)[1,2,4]triazolo[1,5-a]pyridin-2-amine]
6.3 nM	7.9 nM	Nc1nc2cc(-c3cnn(C(c4ccc(C(F)(F)F)nc4)C4CCOCC4)c3)cc(-c3ccnc(C(F)(F)F)c3)n2n1 (single isomer, unassigned) [II-36, 7-(1-{Tetrahydro-2H-pyran-4-yl[6-(trifluoromethyl)pyridin-3-yl]methyl}-1H-pyrazol-4-yl)-5-[2-(trifluoromethyl)pyridin-4-yl][1,2,4]triazolo[1,5-a]pyridin-2-amine]
